The source of these data is publication PMC11597387 (Molecules, 2024).

Several values for one entry are separate records, joined by “and”; a condition that tells them apart may be missing. Identical values can stand only once. Like-named read-outs stand apart in the source and are kept apart here.

Series [1] is described as follows: pKa determination by UV/vis spectrometric method. Type of series: physicochemical. The note with it: buffers I = 0.1 M, 1% methanol. From the text:
For the successful determination of pKa values using the UV/vis spectrometric method, the UV/vis absorbance of the sample must change as a function of ionization. […] For the other investigated compounds, the spectra and results of data analysis are presented in the Supporting Information (Figures S1–S3). […] At lower pH values, the molecules are neutral with an absorption maximum between 311 nm and 343 nm. At the highest pH value, only deprotonated species are present with two absorption maxima, one at a wavelength around 370 nm and the other around 305 nm. […] Data analysis for the determination of ionization constants by spectral analysis applied in this study is described by Tomsho et al. and Ríos Martínez and Dardonville.
The results of repeated measurements show satisfactory precision with scatter values less than or equal to 0.06 for all compounds [36].
Working solutions were prepared by 100-fold dilution of stock solutions with appropriate buffer solutions.
Chemicals used for preparation of buffers were sodium acetate (Alkaloid, Skopje, Macedonia), potassium dihydrogenphosphate (Lach-ner, Neratovice, Czech Republic), sodium hydrogencarbonate (Kemika, Zagreb, Croatia), and dipotassium hydrogenphosphate (Fisher Chemical, Loughborough, UK). Sodium hydroxide was supplied by Gram-mol (Zagreb, Croatia), and hydrochloric acid was supplied by VWR Chemicals (Leuven, Belgium). All chemicals used were of analytical grade and used as received. For the preparation of buffer solutions for spectrophotometric measurements, stock solutions of 0.1 M sodium acetate, 0.05 M potassium dihydrogen phosphate, 0.05 M sodium hydrogen carbonate, and 0.05 M dipotassium hydrogen phosphate were used. Sodium acetate/acetic acid buffer was used for pH range 3.5−5.0, KH2PO4/K2HPO4 for pH range 5.5–8.5, […] for pH range 9.0−11.0, and K2HPO4/K3PO4 for pH range 11.0−11.5. All buffer solutions were prepared with the same ionic strength (I = 0.1 M) by adding KCl (Lach-ner, Neratovice, Czech Republic).
The exact pH value of the prepared buffer solutions was measured with an S20 SevenEasy pH-meter (MettlerToledo, Greifenseea, Switzerland).
The data analysis was carried out in the entire specified range. However, due to high absorbance at short wavelengths and zero absorbance at wavelengths greater than 500 nm, spectra in the range from 250 nm to 500 nm are shown in the figures for a clearer presentation. […] Appropriate buffer solutions were used as a blank.
Data analysis included correction of the raw spectra (A(500 nm) = 0) and the calculation of the spectral difference, which were performed using Excel program. The spectral difference was determined between the spectra recorded at each pH and at the spectra recorded at the lowest pH. The wavelengths of maximum positive and negative deviations were determined from the spectral difference graph. The absolute values of the absorbance difference at the determined wavelengths were summed to obtain total absorbance difference. The dependence of the total absorbance difference on pH (spectral difference graph) gives a characteristic sigmoidal curve. […] (1) Total absorbace difference = STεHA−εA^−·10^(pH−pKa)/1+10^(pH−pKa) where [ST] is the total substance concentration, and εHA and εA^− represent the extinction coefficients of the acidic and basic form of the compound, respectively.
Measurements were performed using freshly prepared working solutions. For each resveratrol analogue and each pH, three consecutive measurements were made.

The conditions of series [2]: literature value, no reference given; cited from earlier work.
[3] abbreviates: mean of three determinations, read-out: pKa¯ ± Scatter Value.
The mark [4] stands for this setting: single determination (one of three).
Where [5] appears, read: single determination (one of three), read-out: pKa.

For `Oc1cccc(/C=C/c2cccs2)c1` [Compound 3, (E)-3-(2-(Thiophen-2-yl)vinyl)phenol], the values for the pKa in series [1] (setting [3]), in series [1] (setting [4]) and in series [1] (setting [5]) were 10.1, 10.05 and 10.1, respectively.

For `COc1ccc(/C=C/c2ccc(C)s2)c(O)c1` [Compound 6, (E)-5-Methoxy-2-(2-(5-methythiophen-2-yl)vinyl)phenol], the pKa is 9.62 in series [1] (setting [3]); 9.59 and 9.66 in series [1] (setting [4]); 9.62 in series [1] (setting [5]).

With `COc1cccc(O)c1` [meta-methoxyphenol], in series [2], the “experimental pKa^exp” value is 9.6.

Turning to `COc1ccc(/C=C/c2cccs2)c(O)c1` [Compound 4, (E)-5-Methoxy-2-(2-(thiophen-2-yl)vinyl)phenol], the pKa was 9.17 ± 0.06 in series [1] (setting [3]); 9.21 and 9.11 in series [1] (setting [4]); 9.19 in series [1] (setting [5]).

`Cc1ccc(/C=C/c2ccccc2O)s1` [Compound 5, (E)-2-(2-(5-Methylthiophen-2-yl)vinyl)phenol]: the pKa in series [1] (setting [3]) worked out at 9.4; in series [1] (setting [4]), 9.36; in series [1] (setting [5]), 9.45.

As to `Oc1ccccc1/C=C/c1cccs1` [Compound 2, (E)-2-(2-(Thiophen-2-yl)vinyl)phenol], the pKa was 9.88 ± 0.04 in series [1] (setting [3]); 9.86 and 9.92 in series [1] (setting [4]); 9.85 in series [1] (setting [5]).

A word on the pKa: it is the negative logarithm of the acid dissociation constant.
